Literature values as cited in patent US10450322B2, “Low molecular weight derivatives of carboxamide halogenated porphyrins, namely chlorins and bacteriochlorins, and their applications thereof” (LUZITIN, S.A., priority 2015, dated 2019).

Conditions: at physiological pH; cited from earlier work

Structure (SMILES): Oc1cccc(-c2c3nc(c(-c4cccc(O)c4)c4ccc([nH]4)c(-c4cccc(O)c4)c4nc(c(-c5cccc(O)c5)c5ccc2[nH]5)CC4)C=C3)c1 [temoporfin, 5,10,15,20-tetra (m-hydroxyphenyl)chlorin]
- log POW: 5.5
